Experimental data from PMC9230201, “Sustained Consumption of a Decaffeinated Green Coffee Nutraceutical Has Limited Effects on Phenolic Metabolism and Bioavailability in Overweight/Obese Subjects” (Nutrients, 2022).
Several values for one entry are separate records, joined by “and”; a condition that tells them apart may be missing. Equal entries are not always repeated.

Legend:
[1] = Urinary excretion of phenolic metabolites after intake of the GCPE nutraceutical; conditions: for Cumulative urinary excretion, Total 0–24 h / Urinary excretion: urine; for Cumulative urinary excretion, Total 0–24 h: mean ± SEM, n = 9
Method: Participants attended the Human Nutrition Unit (HNU) at the Institute of Food Science, Technology and Nutrition (ICTAN-CSIC) on two consecutive days at the beginning of the intervention (week 0) and also on two consecutive days at the end of the study, after consuming daily two doses of the GCPE nutraceutical, providing 600 mg/d phenols, during two months (week 8). […] A licensed health care professional placed an intravenous catheter in the subjects′ nondominant arm and collected a fasting blood sample (baseline, 0 h). Then, subjects drank the soluble GCPE nutraceutical dissolved in 200 mL of water. […] On the sampling days, volunteers remained at the HNU, where a (poly)phenol-free diet was provided. Half an hour after consuming the nutraceutical, volunteers ate a breakfast consisting of ham, cheese, white bread, and a yogurt. Lunch (paella, bread, and yogurt) and an afternoon snack (muffin and yogurt) were eaten 5 and 9 h, respectively, after consuming the nutraceutical. Water and isotonic beverages were freely available. […] The same protocol was followed during visits at the end of the 8-week intervention. On each occasion, two days before each visit to the HNU, subjects consumed a low (poly)phenol diet free of foods containing hydroxycinnamates such as coffee, herbal teas, red wine, artichokes, whole grain cereals, vegetables, fruits and fruit juices, and dried fruits. Only banana, watermelon, cantaloupes, and potatoes were allowed.
(§1) Blood samples were immediately centrifuged (10 min, 3000 rpm, 4 °C) to obtain plasma. […] All biological samples were stored at −80 °C until analysis.
To extract plasma metabolites, 10 µL of 50% (v/v) aqueous formic acid, and 900 µL cold acetonitrile containing 50 µL of 10% (w/v) ascorbic acid were added to 400 µL defrosted plasma. Samples were vortexed and centrifuged (14,000 rpm, 10 min, 4 °C), repeating the extraction and combining the two supernatants, which were reduced to dryness under nitrogen [13]. Dried samples were resuspended in 150 µL of 0.1% aqueous formic acid (containing 10% acetonitrile acidified with 0.1% formic acid), centrifuged (15 min, 14,000 rpm, 4 °C), and the supernatant collected. Urine samples were diluted 1:1 with Milli-Q water and centrifuged (14,000 rpm, 20 min, 4 °C) prior to analysis. Phosphate-buffered saline (3 mL) was added to a representative 300 mg sample of thawed feces, homogenized in an ultrasound bath during 10 min, centrifuged (14,000 rpm, 20 min, 4 °C), and the supernatants collected.
Mobile phase A was 0.1% formic acid in Milli-Q water, and mobile phase B was acetonitrile containing 0.1% formic acid at a 0.3 mL/min flow rate. […] Metabolites were identified based on their retention time using authentic standards when possible. […] Urine concentration of excreted metabolites was normalized to the total volume excreted in each studied interval.
Plasma (30 µL), urine (5 µL) and fecal extracts (5 µL) were filtered through 0.45 µm
cellulose-acetate membrane filters and injected into an Agilent 1200 series LC system
ESI-Jet Stream Technology (Agilent Technologies). A reverse-phase Ascentis Express
C18 (15 cm x 3 mm, 2.7 µm) column (Sigma-Aldrich Quimica, Madrid), preceded by a
phase A was 0.1% formic acid in Milli-Q water, and mobile phase B was acetonitrile
containing 0.1% formic acid at a 0.3 mL/min flow rate. The gradient started with 10% B
at 0 min, 30% B at 10 min, 40% B at 15 min, reaching 50% B at 20 min. The starting
gradient was then re-established in 2 min and maintained for 8 min to re-equilibrate the

[2] = Plasma pharmacokinetics of phenolic metabolites after intake of the GCPE nutraceutical (LC-MS-QToF); conditions: for Cmax: mean ± SEM, n = 9; for AUC(0-t) / Tmax: 300 mg hydroxycinnamic acids; for AUC(0-t): AUC0–24h; for Tmax: Tmax (h) or Range
Method: Participants attended the Human Nutrition Unit (HNU) at the Institute of Food Science, Technology and Nutrition (ICTAN-CSIC) on two consecutive days at the beginning of the intervention (week 0) and also on two consecutive days at the end of the study, after consuming daily two doses of the GCPE nutraceutical, providing 600 mg/d phenols, during two months (week 8). On each occasion, on the first visit day (Figure 1), subjects arrived at the HNU after an overnight (12 h) fast and provided a urine sample. A licensed health care professional placed an intravenous catheter in the subjects′ nondominant arm and collected a fasting blood sample (baseline, 0 h). Then, subjects drank the soluble GCPE nutraceutical dissolved in 200 mL of water. Subsequently, blood samples were collected in EDTA-coated tubes at 0.5, 1, 1.5, 2, 3, 4, 6, 8, 10, and 11 h. On the sampling days, volunteers remained at the HNU, where a (poly)phenol-free diet was provided. Half an hour after consuming the nutraceutical, volunteers ate a breakfast consisting of ham, cheese, white bread, and a yogurt. Lunch (paella, bread, and yogurt) and an afternoon snack (muffin and yogurt) were eaten 5 and 9 h, respectively, after consuming the nutraceutical. Water and isotonic beverages were freely available. Volunteers were instructed to eat a (poly)phenol-free dinner that night and to attend the HNU on the next day after a 12 h fast. Then, a final blood sample was obtained from the antecubital vein 24 h after consuming the nutraceutical. The same protocol was followed during visits at the end of the 8-week intervention. On each occasion, two days before each visit to the HNU, subjects consumed a low (poly)phenol diet free of foods containing hydroxycinnamates such as coffee, herbal teas, red wine, artichokes, whole grain cereals, vegetables, fruits and fruit juices, and dried fruits. Only banana, watermelon, cantaloupes, and potatoes were allowed.
as §1
To extract plasma metabolites, 10 µL of 50% (v/v) aqueous formic acid, and 900 µL cold acetonitrile containing 50 µL of 10% (w/v) ascorbic acid were added to 400 µL defrosted plasma. Samples were vortexed and centrifuged (14,000 rpm, 10 min, 4 °C), repeating the extraction and combining the two supernatants, which were reduced to dryness under nitrogen [13]. Dried samples were resuspended in 150 µL of 0.1% aqueous formic acid (containing 10% acetonitrile acidified with 0.1% formic acid), centrifuged (15 min, 14,000 rpm, 4 °C), and the supernatant collected.
A reverse-phase Ascentis Express C18 (15 cm × 3 mm, 2.7 µm) column (Sigma-Aldrich Quimica, Madrid, Spain), preceded by a Supelco 55215-U guard column (3 mm × 5 mm, 2.7 µm), was used for separation. Mobile phase A was 0.1% formic acid in Milli-Q water, and mobile phase B was acetonitrile containing 0.1% formic acid at a 0.3 mL/min flow rate. […] Metabolites were identified based on their retention time using authentic standards when possible.

[3] = week 0, GCPE nutraceutical with 300 mg hydroxycinnamic acids
[4] = week 0, first peak where biphasic
[5] = week 8, GCPE nutraceutical with 300 mg hydroxycinnamic acids
[6] = week 8, first peak where biphasic

Molecule | Cumulative urinary excretion, Total 0–24 h ([1]; week 0) | Cumulative urinary excretion, Total 0–24 h ([1]; week 8) | Amount excreted in urine, 0- 3 h ([1]; week 0, interval 0–3 h) | Amount excreted in urine, 3-6 h ([1]; week 0, interval 3–6 h) | Amount excreted in urine, 6-9 h ([1]; week 0, interval 6–9 h) | Amount excreted in urine, 9-11 h ([1]; week 0, interval 9–11 h) | Amount excreted in urine, 11-24 h ([1]; week 0, interval 11–24 h) | Amount excreted in urine, 0- 3 h ([1]; week 8, interval 0–3 h) | Amount excreted in urine, 3-6 h ([1]; week 8, interval 3–6 h) | Amount excreted in urine, 6-9 h ([1]; week 8, interval 6–9 h) | Amount excreted in urine, 9-11 h ([1]; week 8, interval 9–11 h) | Amount excreted in urine, 11-24 h ([1]; week 8, interval 11–24 h) | AUC0–24h ([2]; week 0) | Cmax [2, 3] | Tmax (h) or Range [2, 4] | AUC0–24h ([2]; week 8) | Cmax [2, 5] | Tmax (h) or Range [2, 6] | further results
O=C(O)CNC(=O)c1cccc(O)c1 [3′-Hydroxyhippuric acid] | 32 ± 5 µmol | 46 ± 8 µmol | 3 ± 2 µmol | 1.1 ± 0.2 µmol | 4 ± 1 µmol | 5 ± 1 µmol | 11 ± 2 µmol | 4 ± 1 µmol | 2.6 ± 0.7 µmol | 6 ± 2 µmol | 5 ± 1 µmol | 9 ± 2 µmol | 10 ± 3 µM/min | 1100 ± 300 nM | 10.0 ± 0.4 h | 13 ± 3 µM/min | 1300 ± 200 nM | 9.2 ± 0.5 h | Cumulative urinary excretion, Total 0–24 h ([1]; week 0, listed as 3′-hydroxyhippuric acid): 32 µmol; Cumulative urinary excretion, Total 0–24 h ([1]; week 8, listed as 3′-hydroxyhippuric acid): 46 µmol; Amount excreted in urine, TOTAL ([1]; week 0, Table S5 total): 32 ± 5 µmol; Amount excreted in urine, 0 h ([1]; week 8, 0 h (before intake on sampling day)): 18 ± 5 µmol; Amount excreted in urine, TOTAL ([1]; week 8, Table S6 total): 46 ± 8 µmol
O=C(O)CNC(=O)c1ccc(O)cc1 [4′-Hydroxyhippuric acid] | 14 ± 2 µmol | 14 ± 2 µmol | 1.3 ± 0.3 µmol | 0.7 ± 0.1 µmol | 1 ± 0.3 µmol | 0.8 ± 0.2 µmol | 3.8 ± 0.9 µmol | 1.5 ± 0.3 µmol | 0.6 ± 0.1 µmol | 1.2 ± 0.2 µmol | 1.1 ± 0.3 µmol | 2.8 ± 0.6 µmol | 1.2 ± 0.2 µM/min | 80 ± 10 nM | 12 ± 3 h | 1.3 ± 0.2 µM/min | 90 ± 10 nM | 8 ± 2 h | Amount excreted in urine, TOTAL ([1]; week 0, Table S5 total): 14 ± 2 µmol; Amount excreted in urine, TOTAL ([1]; week 8, Table S6 total): 14 ± 2 µmol
O=C(O)Cc1ccc(O)cc1 [4′-Hydroxyphenylacetic acid] |  |  |  |  |  |  |  |  |  |  |  |  | 2 ± 1 µM/min | 2000 ± 1000 nM | 2 ± 2 h | 36 ± 23 µM/min | 7000 ± 3000 nM | 0.6 ± 0.1 h | 
O=C(O)C=Cc1ccc(OC2OC(C(=O)O)C(O)C(O)C2O)cc1 (stereo not drawn) [CoA-4′-glucuronide, Cinnamic acid-4′-glucuronide] |  |  |  |  |  |  |  |  |  |  |  |  | 0.72 ± 0.08 µM/min | 39 ± 2 nM | 1.4 ± 0.3 h | 0.71 ± 0.07 µM/min | 38 ± 2 nM | 2.1 ± 0.2 h | Tmax, second peak ([2]; week 0, biphasic profile): 7.0 ± 0.9 h; Tmax, second peak ([2]; week 8, biphasic profile): 9 ± 2 h
O=C(O)/C=C/c1ccc(OS(=O)(=O)O)cc1 [CoA-4′-sulfate, Cinnamic acid-4′-sulfate] |  |  |  |  |  |  |  |  |  |  |  |  | 0.2 ± 0.2 µM/min | 20 ± 20 nM | 1.7 ± 0.9 h | 0.4 ± 0.2 µM/min | 30 ± 10 nM |  | Tmax, second peak ([2]; week 0, biphasic profile): 6 ± 3 h; Tmax, second peak ([2]; week 8, biphasic profile): 11 ± 3 h
O=C(O)CCc1ccc(OS(=O)(=O)O)c(O)c1 [DHCA-4′-sulfate, 3-(3′-Hydroxyphenyl)propanoic acid-4′-sulfate] | 8 ± 2 µmol | 10 ± 2 µmol | 0.4 ± 0.1 µmol | 0.2 ± 0.04 µmol | 0.5 ± 0.2 µmol | 0.5 ± 0.2 µmol | 2.6 ± 0.8 µmol | 0.6 ± 0.2 µmol | 0.2 ± 0.04 µmol | 0.5 ± 0.1 µmol | 0.6 ± 0.2 µmol | 1.7 ± 0.5 µmol | 2.3 ± 0.5 µM/min | 340 ± 90 nM | 7.9 ± 0.5 h | 2.1 ± 0.4 µM/min | 330 ± 70 nM | 8.4 ± 0.6 h | Urinary excretion ([1]; week 0): 8 µmol/24 h; Urinary excretion ([1]; week 8): 10 µmol/24 h
COc1cc(CCC(=O)O)ccc1O[C@@H]1O[C@H](C(=O)O)[C@@H](O)[C@H](O)[C@H]1O [DHFA-4′-glucuronide, 3-(3′-Methoxyphenyl)propanoic acid-4′-glucuronide] | 5 ± 1 µmol | 7 ± 1 µmol | 0.15 ± 0.05 µmol | 0.16 ± 0.05 µmol | 1 ± 0.4 µmol | 0.8 ± 0.1 µmol | 1.2 ± 0.2 µmol | 0.21 ± 0.06 µmol | 0.34 ± 0.09 µmol | 1 ± 0.2 µmol | 0.8 ± 0.2 µmol | 1 ± 0.3 µmol | 1.1 ± 0.3 µM/min | 130 ± 30 nM | 8.7 ± 0.6 h | 0.8 ± 0.1 µM/min | 120 ± 20 nM | 8.7 ± 0.6 h | Urinary excretion ([1]; week 0): 5 µmol/24 h; Urinary excretion ([1]; week 8): 7 µmol/24 h
COc1cc(CCC(=O)O)ccc1OS(=O)(=O)O [DHFA-4′-sulfate, 3-(3′-Methoxyphenyl)propanoic acid-4′-sulfate] | 10 ± 2 µmol | 9 ± 2 µmol | 0.5 ± 0.1 µmol | 0.5 ± 0.1 µmol | 3.4 ± 1.2 µmol | 2.1 ± 0.5 µmol | 3.5 ± 0.8 µmol | 0.6 ± 0.1 µmol | 0.8 ± 0.2 µmol | 2 ± 1 µmol | 3 ± 1 µmol | 2.6 ± 0.8 µmol | 1.5 ± 0.7 µM/min | 190 ± 80 nM | 8.1 ± 0.4 h | 1.1 ± 0.3 µM/min | 170 ± 50 nM | 8.4 ± 0.6 h | 
COc1ccc(CCC(=O)O)cc1O [DHiFA, 3-(3′-Hydroxy-4′-methoxyphenyl) propanoic acid] | 3.7 ± 0.4 µmol | 3.2 ± 0.2 µmol | 0.26 ± 0.04 µmol | 0.25 ± 0.08 µmol | 1.2 ± 0.3 µmol | 0.8 ± 0.2 µmol | 1.2 ± 0.09 µmol | 0.32 ± 0.07 µmol | 0.38 ± 0.08 µmol | 1 ± 0.2 µmol | 0.7 ± 0.2 µmol | 1 ± 0.2 µmol |  |  |  |  |  |  | AUC(0-t) ([2]; human, oral, week 0): 0.5 ± 0.2 µM·h; AUC(0-t) ([2]; human, oral, week 8): 0.6 ± 0.2 µM·h; Tmax ([2]; human, oral, week 0, first peak where biphasic): 7 ± 1 h; Tmax ([2]; human, oral, week 8, first peak where biphasic): 7 ± 1 h; Cmax ([2]; human, oral, 300 mg, Cmax, week 0, GCPE nutraceutical with 300 mg hydroxycinnamic acids): 70 ± 20 nM; Cmax ([2]; human, oral, 300 mg, Cmax, week 8, GCPE nutraceutical with 300 mg hydroxycinnamic acids): 70 ± 20 nM
COc1ccc(CCC(=O)O)cc1O[C@@H]1O[C@H](C(=O)O)[C@@H](O)[C@H](O)[C@H]1O [DHiFA-3′-glucuronide, 3-(4′-Methoxyphenyl)propanoic acid-3′-glucuronide] | 2.9 ± 0.5 µmol | 3.1 ± 0.7 µmol | 0.12 ± 0.04 µmol | 0.16 ± 0.06 µmol | 1.1 ± 0.4 µmol | 0.7 ± 0.2 µmol | 0.8 ± 0.2 µmol | 0.3 ± 0.1 µmol | 0.28 ± 0.07 µmol | 1.1 ± 0.2 µmol | 0.8 ± 0.4 µmol | 0.6 ± 0.3 µmol | 0.6 ± 0.4 µM/min | 60 ± 20 nM | 9.0 ± 0.6 h | 0.7 ± 0.4 µM/min | 70 ± 30 nM | 8.1 ± 0.8 h | 
COc1ccc(CCC(=O)O)cc1OS(=O)(=O)O [DHiFA-3′-sulfate, 3-(4′-Methoxyphenyl)propanoic acid-3′-sulfate] | 3 ± 1 µmol | 2.6 ± 0.8 µmol | 0.18 ± 0.06 µmol | 0.1 ± 0.04 µmol | 0.4 ± 0.1 µmol | 0.2 ± 0.1 µmol | 1.9 ± 0.8 µmol | 0.14 ± 0.04 µmol | 0.09 ± 0.03 µmol | 0.24 ± 0.09 µmol | 0.11 ± 0.03 µmol | 2 ± 0.7 µmol | 0.3 ± 0.1 µM/min | 40 ± 10 nM | 7 ± 1 h | 0.8 ± 0.5 µM/min | 110 ± 60 nM | 11.6 ± 3.2 h | 
Coumaroylquinic acid | 0.14 ± 0.03 µmol | 0.10 ± 0.02 µmol | 0.03 ± 0.01 µmol | 0.015 ± 0.003 µmol | 0.017 ± 0.006 µmol | 0.015 ± 0.004 µmol | 0.06 ± 0.02 µmol | 0.009 ± 0.003 µmol |  | 0.014 ± 0.002 µmol | 0.012 ± 0.004 µmol | 0.06 ± 0.02 µmol |  |  |  |  |  |  | Cumulative urinary excretion, Total 0–24 h ([1]; week 0, listed as coumaroylquinic acid): 0.14 µmol; Cumulative urinary excretion, Total 0–24 h ([1]; week 8, listed as coumaroylquinic acid): 0.10 µmol
Dihydrocoumaroylquinic acid |  |  |  |  |  |  | 0.12 µmol and 0.14 µmol | 0.03 µmol and 0.017 µmol | 0.009 µmol and 0.01 µmol |  |  | 0.09 µmol and 0.12 µmol |  |  |  |  |  |  | Urinary excretion ([1]; week 0): 0.22 µmol/24 h; Urinary excretion ([1]; week 8): 0.17 µmol/24 h
